Source: paper PMC11793105, “A kalihinol analog disrupts apicoplast function and vesicular trafficking in P. falciparum malaria” (Science (New York, N.Y.), 2024)
Read-outs that look alike come from different tables or passages of the source.

Key:
[1] = system: P. falciparum 3D7 (MRA-102, drug sensitive); assay: SYBR Green I growth inhibition assay, 3D7; format: cell-based; settings: Plasmodium falciparum
Experimental: Fig. 1. […] (B) SYBR Green–based dose response assays were conducted on early-ring stage parasites (6 hours after invasion). […] 3D7 WT (blue), NF54 (green), drug-resistant strains Dd2 (red), HB3 (black), W2 (gray), and D10-ACP-GFP (purple) lines (Sigmoidal, 4PL, X is concentration, n ≥ 3, nonlinear regression, CI: 95%). (C) Schematic diagram of the development of P. falciparum after two consecutive erythrocytic cycles. The time points at which MED6-189 was introduced are depicted in green. HPS, hours post synchronization. […] The images depict various developmental stages of the parasite’s intraerythrocytic life cycle. Bordered images represent time points when drug was first introduced (n = 3 biological replicates, P < 0.05).
Detailed information on materials and methods is available in the supplementary materials. […] P. knowlesi assays were quantitatively measured by flow cytometry using SYBR Green I and Mitrotracker Deep Red, as previously described ([84], [85]), on a Beckman Coulter CytoFLEX. […]
P. falciparum in vitro SYBR green fluorescence-based assays The anti-malarial activity of individual analogues were evaluated in-vitro against P. falciparum 3D7 (MRA-102, drug […]
green-I based fluorescence assay. Parasite growth rate and stages of development were determined via microscopy through Giemsa-stained smears of the cultures. […]

[2] = Pharmacokinetics after oral administration to P. falciparum-infected mice (Table S10); format: in vivo, P. falciparum-infected SCID mice; settings: for Cmax: 50mg/kg oral in 1% Methylcellulose; for AUC(0-inf): read-out: AUCINF_obs
Experimental: An Acquity ultra-performance liquid chromatography (UPLC) system (Waters Corp., Milford, MA, USA) couple to a triple quadrupole mass spectrometer (API 4000, AB Sciex, Foster City, CA, USA) was used for the analysis ([99]).
Blood concentration time data were analyzed by Non-Compartmental PK analysis using Phoenix WinNonlin software (Certara, NY, US) to calculate PK parameters. […]
mg/kg per day for four consecutive days. Treatment started at day 3 and finished at day 6 after infection. In all cases, parasitemia was assessed in samples from peripheral blood obtained at days 3, 4, 5, 6, and 7 after infection. Fresh samples of peripheral blood from P. falciparum-infected mice were stained with TER-119-Phycoerythrine (marker of murine erythrocytes) and SYTO-16 (nucleic acid dye) and then analyzed by flow cytometry (FACSCalibur, BD). Efficacy was determined using flow cytometry data as the percentage of Parasitemia reduction compared with […]
blood samples obtained during the 23 h period after the first dose in all mice. Peripheral blood samples (15 µL) were taken at frequent intervals, mixed with 30 µL of H2O milli Q and immediately frozen on dry ice. The frozen samples were stored at −80 °C until analysis. Vehicle-treated mice experienced the same blood-sampling regimen (table S9, S10).
Bioanalysis and pharmacokinetics analysis: LC-MS
Bioanalysis of in vivo samples: Sample pretreatment Before the analysis 15ul of blood samples were defrost at ambient temperature and mixture with 200ul of ACN:MeOH (80:20). After protein precipitation samples were filtered by 0.45um filter plate (Multiscreen Solvinert 0.45um FTPE, Millipore). The 2ul TFA (Trifluoroacetic acid, sigmaAldrich) were added to each filtered sample in order to derivatize the compound to formamide analogue. This process occurs spontaneously.
LC-MS analysis An Acquity Ultra-Performance liquid chromatography (UPLC) system (Waters Corp., Milford, MA, USA) couple to a triple quadrupole mass spectrometer (API 4000™, AB Sciex, Foster City, CA, USA) was used for the analysis. The MS/MS transition was 311.340 / […]
The chromatographic separation was carried out at 0.4ml/min in a Acquity UPLC™ BEH C18 column (50x2.1 mm i.d., […]; Waters Corp.) at 40 °C with Acetonitrile (sigmaAldrich) and 0.1% formic acid as eluents.
Pharmacokinetic analysis Blood concentration time data were analyzed by Non-Compartmental PK analysis using Phoenix WinNonlin software (Certara NY, US) to calculate PK parameters. The maximum observed concentration (Cmax) and the time to reach it (Tmax), were determined. The area under concentration-time curve from dosing at time zero to the last measured concentration […]
time (AUClast) and the total area under concentration-time curve from time zero extrapolated to infinity (AUCinf), were calculated using a linear trapezoidal rule. […]

[3] = 50mg/kg oral, infected mice, individual mice
[4] = SCID, mouse, whole blood, po, 50 mg/kg, 50mg/kg oral, infected mice, Mean
[5] = SCID, mouse, whole blood, po, 50 mg/kg, 50mg/kg oral, infected mice, individual mice

[C-]#[N+][C@]1(C)CC[C@H]2[C@@H]([C@@H](C(C)C)CC[C@]2(C)[N+]#[C-])[C@H]1O [MED6-189]
IC50 ([1]; 3D7, read-out: IC50 (µM) P. falciparum (3D7)): 0.015 µM | IC50 ([1]; 3D7, early-ring stage (6 h after invasion), 72 h exposure, read-out: IC50): 0.014 ± 0.002 µM | accumulation in blood (levels at 96 hrs) ([2]; 50 mg/kg oral every 24h, four days): no accumulation | Cmax ([2]; infected mice, individual mice 1 and 2): 8980 ng/mL | Tlast ([2]; 50mg/kg oral, infected mice, Mean): 24 h | AUCINF_obs [2, 3]: 115.877 µg·h/mL | AUClast [2, 3]: 114.617 µg·h/mL | Tlast [2, 3]: 24 h | Cmax ([2]; SCID, mouse, whole blood, po, 50 mg/kg, infected mice, Mean, read-out: Cmax): 7920 ng/mL | Cmax ([2]; SCID, mouse, whole blood, po, 50 mg/kg, infected mice, individual mice 1 and 2, read-out: Cmax): 6860 ng/mL | AUC(0-t) [2, 4]: 101 µg·h/mL | AUC(0-inf) [2, 4]: 105 µg·h/mL | AUC(0-t) [2, 5]: 86.8 µg·h/mL | AUC(0-inf) [2, 5]: 94.1 µg·h/mL | Tmax ([2]; SCID, mouse, whole blood, 50mg/kg oral, infected mice, individual mice): 7 h
